Values of other authors as cited in patent publication US8703753B2, “Use of tellurium compounds for the treatment of actinic keratosis” (Biomas Ltd., priority 2005, dated 2014).
Like-named read-outs stand apart in the source and are kept apart here.

Tests used:
interferon (IFN) [1] = conditions: mice
[2] = rats, intravenous and intramuscular administration
interferon (IFN) [3] = conditions: humans

## Cl[TeH]1(Cl)(Cl)OCCO1.N [AS101, ammonium trichloro(dioxyethylene-O,O′)tellurate]
Interferon (IFN) [1]
  activation of interferon (IFN): potent activator
IL-10
  effect on IL-10 at the m-RNA level: inhibit IL-10
[2]
  LD50 relative to the immunologically effective dose: 500-1000 folds
Interferon (IFN) [3]
  activation of interferon (IFN): potent activator
